From US9062070B2, “Inhibitors of the renal outer medullary potassium channel” (Merck Sharp & Dohme Corp., priority 2011, dated 2015)

Columns and labels:
[1] = molecular target: Kir1.1 (ROMK1) (Homo sapiens (Human), UniProt P48048); experiment: Electrophysiology Assay (whole cell voltage clamp, IonWorks Quattro); format: cell-based; details: Chinese hamster ovary cells stably expressing Kir1.1; block during voltage step to 0 mV
Experimental: Block of Kir1.1 (ROMK1) currents was examined by whole cell voltage clamp (Hamill et. al. […] Prior to an experiment, Kir1.1 expression was induced by overnight incubation with 1 mM sodium butyrate. […] After centrifugation, the cell pellet was resuspended in approximately 4.0 mL of bath solution and placed in the IonWorks instrument. The intracellular solution consisted of (in mM): 80 K gluconate, 40 KCl, 20 KF, 3.2 MgCl2, 3 EGTA, 5 Hepes, pH 7.4. […] Amphotericin B (Sigma A-4888) was prepared as a 40 mg/mL solution in DMSO. Voltage protocols and current recordings were performed using the IonWorks HT software/hardware system. […] No correction for liquid junction potentials was used. The test pulse, consisting of a 100 ms step to 0 mV from a holding potential of −70 mV, followed by a 100 ms voltage ramp from −70 mV to +70 mV, was applied before and after a 6 min compound incubation period. Test compounds were prepared by diluting DMSO stock solutions into the bath solution at 3× the final concentration and placed in the instrument in 96-well polypropylene plates. Current amplitudes were measured using the IonWorks software. To assess compound potency, the fractional block during the voltage step to 0 mV was calculated in Microsoft Excel (Microsoft, Redmond, Calif.), and dose-response curves were fitted with Igor Pro 4.0 (WaveMetrics, Lake Oswego, Oreg.).

[2] = molecular target: hROMK (hKir1.1) (Homo sapiens (Human), UniProt P48048); experiment: Thallium Flux Assay (ROMK channel functional thallium flux, FLIPR-Tetra); format: cell-based; details: HEK293 cells stably expressing hROMK (hKir1.1)
Chain of hROMK (hKir1.1) (P48048 whole entry): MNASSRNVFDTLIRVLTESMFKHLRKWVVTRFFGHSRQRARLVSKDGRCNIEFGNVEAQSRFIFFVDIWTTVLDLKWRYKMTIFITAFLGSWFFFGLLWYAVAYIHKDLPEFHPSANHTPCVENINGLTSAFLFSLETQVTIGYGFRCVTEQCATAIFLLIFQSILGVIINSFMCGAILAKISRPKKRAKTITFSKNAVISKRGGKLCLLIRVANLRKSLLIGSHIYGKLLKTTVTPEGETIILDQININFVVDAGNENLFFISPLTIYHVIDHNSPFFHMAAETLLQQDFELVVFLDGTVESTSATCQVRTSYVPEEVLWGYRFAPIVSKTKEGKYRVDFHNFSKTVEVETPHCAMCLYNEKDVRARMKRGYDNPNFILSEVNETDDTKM
Experimental: HEK293 cells stably expressing hROMK (hKir1.1) were grown at 37° C. in a 10% CO2 humidified incubator in complete growth media: Dulbecco's Modified Eagle Medium supplemented with non-essential amino acids, Penicillin/Streptomycin/Glutamine, G418 and FBS. At >80% confluency, aspirate the media from the flask and rinse with 10 mL Calcium/Magnesium-free PBS. Add 5 mL of 1× trypsin (prepared in Ca/Mg Free PBS) to T-225 flask and return flask to 37° C./CO2 incubator for 2-3 minutes. To dislodge the cell, gently bang the side of the flask with your hand. Triturate the cells completely and then transfer the cells to 25 mL complete media. Centrifuge at 1,500 rpm for 6 min followed by resuspension in complete growth media and determine cell concentration. For typical re-seeding, 4E6 cells/T-225 flask will attain>80% confluency in 4 days. Under ideal growth conditions and appropriate tissue culture practices, this cell line is stable for 40-45 passages.
• FluxOR™ Reagent (Component A) • FluxOR™ Assay Buffer (Component B)—10× Concentrate • PowerLoad™ Concentrate (Component C)—100× Concentrate • Probenecid (Component D)—Lyophilized sample is kept at −20° C. Water soluble, 100× after solubilization in 1 mL water. Store at 4° C. • FluxOR™ Chloride-free Buffer (Component E)—5× Concentrate • Potassium sulfate (K2SO4) Concentrate (Component F)—125 mM in water. Store at 4° C. • Thallium sulfate (Tl2SO4) Concentrate (Component G)—50 mM in water. Store at 4° C. • DMSO (dimethyl sulfoxide, Component H)—1 mL (100%) Reagent Preparation: FluxOR Working Solutions • 1000× FluxOR™ Reagent: Reconstitute a vial of component A in 100 μl DMSO; Mix well; Store 10 μl aliquots at −20° C. • 1× FluxOR™ Assay Buffer: Dilute Component B 10-fold with water; Adjust pH to 7.4 with Hepes/NaOH; Filter and store at 4° C. • Probenecid/Assay Buffer: 100 mL of 1× FluxOR™ Assay Buffer; 1 mL of reconstituted component D; Store at 4° C. • Loading Buffer (per microplate): 10 μl 1000× FluxOR™ Reagent; 100 μl component C; 10 mL Probenecid/Assay Buffer • Compound Buffer (per microplate): 20 mL Probenecid/Assay Buffer; 0.3 mM ouabain (10 mM ouabain in water can be stored in amber bottle/aluminum foil at room temperature); Test compound • 1× FluxOR™ Chloride-Free Buffer: Prepare 1× working solution in water. Can be stored at room temperature • Stimulant Buffer (prepared at 5× final concentration in 1× FluxOR™ Chloride-Free Buffer): 7.5 mM Thallium sulfate and 0.75 mM Potassium sulfate (to give a final assay concentration of 3 mM Thallium/0.3 mM Potassium). Store at 4° C. when not in use. If kept sterile, this solution is good for months. Assay Protocol—
The ROMK channel functional thallium flux assay is performed in 384 wells, using the FLIPR-Tetra instrument. HEK-hKir1.1 cells are seeded in Poly-D-Lysine microplates and kept in a 37° C.-10% CO2 incubator overnight. On the day of the experiment, the growth media is replaced with the FluxOR™ reagent loading buffer and incubated, protected from light, at ambient temperature (23-25° C.) for 90 min. The loading buffer is replaced with assay buffer±test compound followed by 30 min incubation at ambient temperature, where the Thallium/Potassium stimulant is added to the microplate.
• 1. Seed HEK-hKir1.1 cells (50 μl at 20,000 cells/well) in 384-well PDL coated Microplates • 2. Allow cells to adhere overnight in humidified 37° C./10% CO2 incubator • 3. Completely remove cell growth media from microplate and replace with 25 μl loading buffer • 4. Incubate Microplate at room temperature, protected form light, for 90 min • 5. Remove loading buffer and replace with 25 μl 1× Assay Buffer±test compound. • 6. Incubate microplate at room temperature, protected form light, for 30 min • 7. At FLIPR-Tetra 384: Add stimulant (Thallium/Potassium) solution to microplate and monitor fluorescence. Excitation=400 nm, Emission=460 & 580 nm. Collect data for ˜10 min. Data Calculation—

Chain of Kir1.1 (ROMK1) (P48048 whole entry): as above

Which results are given for `Cc1c([C@H]2CN3CCN(C(=O)C4CCc5nc(-n6cnnn6)ncc54)C[C@H]3CN2)ccc(F)c1C#N` (stereo partly drawn) [Example 102]?
IC50 [1]: 100 nM; IC50 [2]: 450 nM

With `Cc1c([C@H]2CN3CCN(C(=O)C4CCc5nc(-n6cnnn6)ccc54)C[C@H]3CO2)ccc(F)c1C#N` (stereo partly drawn) [Example 4] as the compound, how does the IC50 [1] read?
Its IC50 is 180 nM.

What about the IC50 [2] of the same compound?
The IC50 was 460 nM.

What does the source list for `N#Cc1c(F)ccc([C@@H]2CN3CCN(C(=O)C4CCc5nc(-n6cnnn6)ccc54)C[C@H]3CO2)c1Cl` (stereo partly drawn) [Example 26]?
IC50 [1]: 110 nM; IC50 [2]: 220 nM

`Cc1c([C@H]2CN3CCN(C(=O)C4CCc5cc(-n6cnnn6)ncc54)C[C@H]3CO2)ccc(F)c1C#N` (single isomer, unassigned) [Example 35] was tested. Which IC50 [1] did it give?
The IC50 was 110 nM.

And the IC50 [2]?
The IC50 was 180 nM.

What does the source list for `Cc1c([C@@H]2CN3CCN(C(=O)C4CCc5cc(-n6cnnn6)cnc54)C[C@H]3CN2)ccc(F)c1C#N` (stereo partly drawn) [Example 100]?
IC50 [1]: 280 nM; IC50 [2]: 750 nM

What does the source list for `Cc1c(C2CN3CCN(C(=O)[C@H]4CCc5nc(-n6cnnn6)ncc54)C[C@@H]3CO2)ccc(F)c1C#N` (stereo in doubt) [Example 2A, 6-Fluoro-2-methyl-3-[(3S,9aR)-8-{[(5S)-2-(1H-tetrazol-1-yl)-6,7-dihydro-5H-cyclopenta[d]pyrimidin-5-yl]carbonyl}octahydropyrazino[2,1-c][1,4]oxazin-3-yl]benzonitrile]?
IC50 [1]: 100 nM; IC50 [2]: 220 nM

`Cc1c([C@@H]2CN3CCN(C(=O)C4CCc5nc(-n6cnnn6)ncc54)C[C@@H]3CO2)ccc(F)c1C#N` (single isomer, unassigned) [Example 2C] was tested. Which IC50 [1] did it give?
Its IC50 is 150 nM.

And the IC50 [2]?
The IC50 was 120 nM.

How did the IC50 [1] turn out when `N#Cc1c(F)ccc([C@@H]2CN3CCN(C(=O)C4CCc5nc(-n6cnnn6)ccc54)C[C@@H]3CO2)c1Cl` (stereo partly drawn) [Example 64] was run?
Its IC50 is 100 nM.

And the IC50 [2]?
Its IC50 is 120 nM.

What does the source list for `Cc1c([C@H]2CN3CCN(C(=O)C4Cc5cnc(-n6cnnn6)nc5C4)C[C@H]3CO2)ccc(F)c1C#N` (stereo partly drawn) [Example 76]?
IC50 [1]: 130 nM; IC50 [2]: 460 nM

For `Cc1c([C@@H]2CN3CCN(C(=O)C4CCCc5nc(-n6cnnn6)ccc54)C[C@H]3CO2)ccc(F)c1C#N` (stereo partly drawn) [Example 11], which IC50 [1] is on record?
The IC50 was 240 nM.

And the IC50 [2]?
The IC50 was 360 nM.

How did the IC50 [1] turn out when `Cc1c([C@H]2CN3CCN(C(=O)C4CCCc5nc(-n6cnnn6)ccc54)C[C@H]3CO2)ccc(F)c1C#N` (stereo partly drawn) [Example 8] was run?
The IC50 was 240 nM.

What about the IC50 [2] of the same compound?
Its IC50 is 350 nM.

With `COc1cc([C@@H]2CN3CCN(C(=O)C4CCc5nc(-n6cnnn6)ccc54)C[C@@H]3CO2)ccc1C#N` (stereo partly drawn) [Example 63] as the compound, how does the IC50 [1] read?
Its IC50 is 270 nM.

What about the IC50 [2] of the same compound?
Its IC50 is 740 nM.

Which results are given for `Cc1c([C@H]2CN3CCN(C(=O)C4CCc5cc(-n6cnnn6)ncc54)C[C@@H]3CN2)ccc(F)c1C#N` (stereo partly drawn) [Example 103]?
IC50 [1]: 110 nM; IC50 [2]: 180 nM

With `N#Cc1c(F)ccc([C@@H]2CN3CCN(C(=O)C4CCc5nc(-n6cnnn6)ccc54)C[C@@H]3CO2)c1Cl` (stereo partly drawn) [Example 65] as the compound, how does the IC50 [1] read?
Its IC50 is 140 nM.

And the IC50 [2]?
The IC50 was 340 nM.

Which IC50 [1] does the source give for `N#Cc1c(F)ccc([C@H]2CN3CCN(C(=O)C4CCc5nc(-n6cnnn6)ccc54)C[C@H]3CO2)c1Cl` (stereo partly drawn) [Example 28] here?
Its IC50 is 120 nM.

And the IC50 [2]?
The IC50 was 220 nM.
